Test results taken from ChEMBL document CHEMBL1201862, “PubChem BioAssay data set” (2004).
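48-hour exposure; five concentrations; linearly interpolated endpoints. GI50 = concentration required for 50% inhibition of growth.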 The source made the active and inactive calls. No stated cut-off is given here; in the data, active = GI50 up to about 1.1 µM and inactive = higher.

Assays:
Assay in all cases: NCI-60 cell line screen, 48 h
[1] = system: A498
[2] = system: CAKI-1
[3] = system: UACC-62
[4] = system: ACHN
[5] = system: CCRF-CEM
[6] = system: MDA-N
[7] = system: OVCAR-5
[8] = system: IGROV-1
[9] = system: SF-539
[10] = system: PC-3
[11] = system: U-251
[12] = system: DU-145
[13] = system: HCT-116
[14] = system: SK-MEL-5
[15] = system: SK-MEL-2
[16] = system: LOX IMVI
[17] = system: RXF 393
[18] = system: OVCAR-3
[19] = system: Malme-3M
[20] = system: RPMI-8226
[21] = system: SW-620
[22] = system: HCT-15
[23] = system: 786-0
[24] = system: MOLT-4
[25] = system: SK-OV-3
[26] = system: MDA-MB-231
[27] = system: OVCAR-8
[28] = system: BT-549
[29] = system: Hs-578T
[30] = system: MCF7
[31] = system: SNB-19
[32] = system: HT-29
[33] = system: SF-268
[34] = system: MDA-MB-435
[35] = system: UACC-257
[36] = system: HL-60
[37] = system: NCI-H23
[38] = system: SK-MEL-28
[39] = system: UO-31
[40] = system: COLO 205
[41] = system: M14
[42] = system: EKVX
[43] = system: TK-10
[44] = system: K562
[45] = system: NCI-H226
[46] = system: NCI/ADR-RES
[47] = system: KM12
[48] = system: SN12C
[49] = system: SR
[50] = system: A549
[51] = system: NCI-H522
[52] = system: HCC 2998
[53] = system: OVCAR-4
[54] = system: NCI-H460
[55] = system: HOP-62
[56] = system: SF-295
[57] = system: SNB-75

Measured: GI50

O=C(c1ccco1)N(C(=O)N1CCCCC1)c1ccccc1
inactive: [1] > 100 µM | [2] > 100 µM | [3] > 100 µM | [4] > 100 µM | [5] > 100 µM | [6] > 100 µM | [7] > 100 µM | [8] > 100 µM | [9] > 100 µM | [10] > 100 µM | [11] > 100 µM | [12] > 100 µM | [13] > 100 µM | [14] > 100 µM | [15] > 100 µM | [16] > 100 µM | [17] 87.9 µM | [18] > 100 µM | [19] 41.2 µM | [20] > 100 µM | [21] > 100 µM | [23] > 100 µM | [24] > 100 µM | [25] > 100 µM | [26] > 100 µM | [27] > 100 µM | [28] > 100 µM | [29] > 100 µM | [30] > 100 µM | [31] > 100 µM | [32] > 100 µM | [33] > 100 µM | [34] > 100 µM | [35] > 100 µM | [36] > 100 µM | [37] > 100 µM | [38] > 100 µM | [39] > 100 µM | [40] > 100 µM | [41] > 100 µM | [42] > 100 µM | [43] > 100 µM | [44] > 100 µM | [45] > 100 µM | [46] > 100 µM | [47] > 100 µM | [48] > 100 µM
> 100 µM: [22]

CCN(CC)c1ccc2cc(-c3nnc(-c4ccccc4)[nH]3)c(=O)oc2c1
inactive: [1] 22.9 µM | [2] 26.9 µM | [3] > 100 µM | [49] 70.5 µM | [4] 36.7 µM | [5] 39.7 µM | [6] > 100 µM | [7] 28.2 µM | [8] 17.7 µM | [9] 13.8 µM | [50] 68.5 µM | [10] 14.9 µM | [11] 15 µM | [12] 14.8 µM | [13] 35.8 µM | [14] > 100 µM | [51] 18.7 µM | [15] 33 µM | [16] 94.4 µM | [18] 40.5 µM | [52] > 100 µM | [19] 83 µM | [53] 7.36 µM | [20] 54.2 µM | [21] 33.7 µM | [23] 14.3 µM | [54] 82 µM | [24] > 100 µM | [25] 19.8 µM | [27] 3.78 µM | [28] 25.2 µM | [29] 39.9 µM | [30] > 100 µM | [31] 12.2 µM | [32] 33 µM | [33] 62.8 µM | [34] 41.9 µM | [35] > 100 µM | [55] 7.28 µM | [36] > 100 µM | [37] 6.49 µM | [38] > 100 µM | [39] 4.39 µM | [40] > 100 µM | [56] 24.5 µM | [41] > 100 µM | [42] 22.8 µM | [44] > 100 µM | [46] 21.7 µM | [47] 40 µM
> 100 µM: [22]

Cc1cn(S(=O)(=O)c2ccccc2)c2c(OCc3ccccc3)cc(NC(=O)c3cc4cc([N+](=O)[O-])ccc4s3)cc12
inactive: [2] > 100 µM | [4] > 100 µM | [5] 38.9 µM | [7] > 100 µM | [8] > 100 µM | [50] > 100 µM | [12] > 100 µM | [14] > 100 µM | [51] > 100 µM | [57] 68.9 µM | [16] > 100 µM | [17] > 100 µM | [52] > 100 µM | [19] 89.7 µM | [53] > 100 µM | [20] > 100 µM | [21] > 100 µM | [54] > 100 µM | [24] 59.6 µM | [25] > 100 µM | [26] 49.1 µM | [27] > 100 µM | [28] > 100 µM | [29] > 100 µM | [55] > 100 µM | [36] 91 µM | [37] > 100 µM | [38] > 100 µM | [39] > 100 µM | [40] > 100 µM | [56] 58.7 µM | [41] 37.8 µM | [42] > 100 µM | [43] > 100 µM | [46] > 100 µM
> 100 µM: [22]
